From ChEMBL document CHEMBL1129258, “Synthesis and structure-activity relationships of 2-pyridones: a novel series of potent DNA gyrase inhibitors as antibacterial agents” (J Med Chem, 1996)
Converted amounts (≈) assume the structure as drawn.

Tested on: not listed separately
Experiment: Maximum plasma concentration in rats after an oral dose of 5 mg/kg
Conditions: rat

SMILES | Cmax [ng/mL]
Cc1c(N2CC[C@@H]3CNC[C@@H]32)c(F)cn2c(=O)c(C(=O)O)cc(C3CC3)c12 | 330

Molecular target: T1, DNA gyrase (Escherichia coli) (UniProt P0AES6+P0AES4)
Experiment: In vivo efficacy against Escherichia coli JUHL after oral administration
Assay type: functional, organism-based
Conditions: Escherichia coli K-12

SMILES | ED50 [mg/kg]
Cc1c(N2CC[C@@H]3CNC[C@@H]32)c(F)cn2c(=O)c(C(=O)O)cc(C3CC3)c12 | 3.6

Molecular target: T1, DNA gyrase (Escherichia coli)
Experiment: In vivo efficacy against Escherichia coli JUHL by subcutaneous administration
Assay type: functional, organism-based
Conditions: Escherichia coli K-12

SMILES | ED50 [mg/kg]
Cc1c(N2CC[C@@H]3CNC[C@@H]32)c(F)cn2c(=O)c(C(=O)O)cc(C3CC3)c12 | 1.1

Molecular target: T1, DNA gyrase (Escherichia coli)
Experiment: In vitro antibacterial activity against gram-negative organism […] ATCC 13048
Assay type: functional
Conditions: Enterobacter aerogenes

SMILES | MIC [µg/mL]
Cc1c(N2CC[C@@H]3CNC[C@@H]32)c(F)cn2c(=O)c(C(=O)O)cc(C3CC3)c12 | 0.05 (≈ 0.135 µM)

Molecular target: T1, DNA gyrase (Escherichia coli)
Experiment: In vitro antibacterial against gram-negative organism Escherichia coli JUHL
Assay type: functional
Conditions: Escherichia coli K-12

SMILES | MIC [ng/mL]
Cc1c(N2CC[C@@H]3CNC[C@@H]32)c(F)cn2c(=O)c(C(=O)O)cc(C3CC3)c12 | 1 (≈ 0.00269 µM)

Molecular target: T1, DNA gyrase (Escherichia coli)
Experiment: In vitro antibacterial activity against gram-negative organism Klebsiella pneumoniae ATCC 8045
Assay type: functional
Conditions: not given

SMILES | MIC [µg/mL]
Cc1c(N2CC[C@@H]3CNC[C@@H]32)c(F)cn2c(=O)c(C(=O)O)cc(C3CC3)c12 | 0.02 (≈ 0.0538 µM)

Tested on: not listed separately
Experiment: In vivo efficacy against Pseudomonas aeruginosa 5007 after subcutaneous administration
Assay type: functional
Conditions: Pseudomonas aeruginosa, sc; read-out: ED50

SMILES | ED50 [mg/kg]
Cc1c(N2CC[C@@H]3CNC[C@@H]32)c(F)cn2c(=O)c(C(=O)O)cc(C3CC3)c12 | > 8

Molecular target: T1, DNA gyrase (Escherichia coli)
Experiment: In vitro antibacterial activity against gram-negative organism Prov. stuartii CMX-640
Assay type: functional
Conditions: Providencia stuartii

SMILES | MIC [µg/mL]
Cc1c(N2CC[C@@H]3CNC[C@@H]32)c(F)cn2c(=O)c(C(=O)O)cc(C3CC3)c12 | 1.56 (≈ 4.2 µM)

Tested on: not listed separately
Experiment: In vitro antibacterial activity against gram-negative organism Pseudomonas aeruginosa 5007
Assay type: functional
Conditions: Pseudomonas aeruginosa; read-out: MIC

SMILES | MIC [µg/mL]
Cc1c(N2CC[C@@H]3CNC[C@@H]32)c(F)cn2c(=O)c(C(=O)O)cc(C3CC3)c12 | 0.39 (≈ 1.05 µM)

Tested on: not listed separately
Experiment: In vitro antibacterial activity against gram-negative organism Pseudomonas aeruginosa DPHD-2862
Assay type: functional
Conditions: Pseudomonas aeruginosa; read-out: MIC

SMILES | MIC [µg/mL]
Cc1c(N2CC[C@@H]3CNC[C@@H]32)c(F)cn2c(=O)c(C(=O)O)cc(C3CC3)c12 | 3.1 (≈ 8.35 µM)

Molecular target: T2, DNA gyrase (Staphylococcus aureus) (UniProt P0A0K8+P20831)
Experiment: In vitro antibacterial activity against gram-positive organism Staphylococcus aureus 1775
Assay type: functional
Conditions: not given

T2 sequence (P0A0K8 2-644 limits assumed): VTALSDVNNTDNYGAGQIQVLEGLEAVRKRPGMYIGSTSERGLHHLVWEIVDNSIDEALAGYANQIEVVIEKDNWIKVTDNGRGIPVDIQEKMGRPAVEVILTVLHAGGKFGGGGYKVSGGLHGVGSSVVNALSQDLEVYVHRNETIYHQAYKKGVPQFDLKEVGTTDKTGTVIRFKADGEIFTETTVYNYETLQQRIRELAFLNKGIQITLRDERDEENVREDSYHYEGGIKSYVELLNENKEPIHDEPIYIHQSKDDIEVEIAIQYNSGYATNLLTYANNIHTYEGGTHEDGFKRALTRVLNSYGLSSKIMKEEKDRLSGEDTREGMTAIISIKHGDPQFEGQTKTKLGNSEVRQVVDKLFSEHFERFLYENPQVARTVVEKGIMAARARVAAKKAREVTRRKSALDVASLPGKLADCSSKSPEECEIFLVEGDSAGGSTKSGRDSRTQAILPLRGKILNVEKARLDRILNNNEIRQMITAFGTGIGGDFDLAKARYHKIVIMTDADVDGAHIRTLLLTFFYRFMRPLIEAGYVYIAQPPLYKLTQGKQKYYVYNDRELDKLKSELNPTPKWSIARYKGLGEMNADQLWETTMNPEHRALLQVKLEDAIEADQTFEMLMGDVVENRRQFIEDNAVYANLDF
T2 sequence (P20831 whole entry partner): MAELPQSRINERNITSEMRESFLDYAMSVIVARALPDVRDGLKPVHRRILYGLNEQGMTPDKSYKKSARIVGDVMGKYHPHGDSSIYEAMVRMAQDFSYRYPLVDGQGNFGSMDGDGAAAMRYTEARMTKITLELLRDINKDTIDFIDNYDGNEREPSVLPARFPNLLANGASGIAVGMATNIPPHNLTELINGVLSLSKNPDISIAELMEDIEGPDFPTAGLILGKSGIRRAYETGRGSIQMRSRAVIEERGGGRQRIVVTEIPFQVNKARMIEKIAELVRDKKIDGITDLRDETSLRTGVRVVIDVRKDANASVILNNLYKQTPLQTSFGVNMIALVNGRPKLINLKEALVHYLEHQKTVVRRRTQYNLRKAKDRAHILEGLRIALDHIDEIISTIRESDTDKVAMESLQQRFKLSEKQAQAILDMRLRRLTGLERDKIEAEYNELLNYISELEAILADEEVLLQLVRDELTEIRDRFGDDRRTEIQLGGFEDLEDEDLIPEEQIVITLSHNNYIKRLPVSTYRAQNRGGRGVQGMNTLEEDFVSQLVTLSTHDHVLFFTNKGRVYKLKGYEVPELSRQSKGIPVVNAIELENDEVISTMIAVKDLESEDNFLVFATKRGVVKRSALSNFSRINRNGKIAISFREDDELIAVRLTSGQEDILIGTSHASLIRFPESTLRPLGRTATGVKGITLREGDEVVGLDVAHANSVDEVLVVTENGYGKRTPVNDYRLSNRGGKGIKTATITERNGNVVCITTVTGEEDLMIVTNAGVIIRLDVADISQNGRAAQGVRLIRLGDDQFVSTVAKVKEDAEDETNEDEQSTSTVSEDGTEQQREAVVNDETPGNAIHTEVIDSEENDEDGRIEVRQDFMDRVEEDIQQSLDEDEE

SMILES | MIC [µg/mL]
Cc1c(N2CC[C@@H]3CNC[C@@H]32)c(F)cn2c(=O)c(C(=O)O)cc(C3CC3)c12 | 6.2 (≈ 16.7 µM)

Molecular target: T2, DNA gyrase (Staphylococcus aureus)
Experiment: In vitro antibacterial activity against gram-positive organism Staphylococcus aureus ATCC 6538p
Assay type: functional
Conditions: not given

SMILES | MIC [µg/mL]
Cc1c(N2CC[C@@H]3CNC[C@@H]32)c(F)cn2c(=O)c(C(=O)O)cc(C3CC3)c12 | 0.05 (≈ 0.135 µM)

Molecular target: T2, DNA gyrase (Staphylococcus aureus)
Experiment: In vitro antibacterial activity against gram-positive organism Staphylococcus aureus NCTC-10649M
Assay type: functional
Conditions: not given

SMILES | MIC [µg/mL]
Cc1c(N2CC[C@@H]3CNC[C@@H]32)c(F)cn2c(=O)c(C(=O)O)cc(C3CC3)c12 | 0.05 (≈ 0.135 µM)

Molecular target: T1, DNA gyrase (Escherichia coli)
Experiment: In vitro antibacterial activity against gram-positive organism Streptococcus bovis A-5169
Assay type: functional
Conditions: Streptococcus equinus

SMILES | MIC [µg/mL]
Cc1c(N2CC[C@@H]3CNC[C@@H]32)c(F)cn2c(=O)c(C(=O)O)cc(C3CC3)c12 | 0.1 (≈ 0.269 µM)

Tested on: Streptococcus pneumoniae
Experiment: In vivo efficacy against Strep. administered
Assay type: functional
Conditions: Streptococcus pneumoniae; read-out: ED50

SMILES | ED50 [mg/kg]
Cc1c(N2CC[C@@H]3CNC[C@@H]32)c(F)cn2c(=O)c(C(=O)O)cc(C3CC3)c12 | 6.4

Molecular target: T2, DNA gyrase (Staphylococcus aureus)
Experiment: In vivo efficacy against Staphylococcus aureus NCTC-10649M after oral administration
Assay type: functional, organism-based
Conditions: not given

SMILES | ED50 [mg/kg]
Cc1c(N2CC[C@@H]3CNC[C@@H]32)c(F)cn2c(=O)c(C(=O)O)cc(C3CC3)c12 | 3.6

Molecular target: T2, DNA gyrase (Staphylococcus aureus)
Experiment: In vivo efficacy against Staphylococcus aureus NCTC-10649M after subcutaneous administration
Assay type: functional, organism-based
Conditions: not given

SMILES | ED50 [mg/kg]
Cc1c(N2CC[C@@H]3CNC[C@@H]32)c(F)cn2c(=O)c(C(=O)O)cc(C3CC3)c12 | 1.8

Tested on: Streptococcus pyogenes
Experiment: In vitro antibacterial activity against gram-positive organism Streptococcus pyogenes EES61
Assay type: functional
Conditions: Streptococcus pyogenes; read-out: MIC

SMILES | MIC [µg/mL]
Cc1c(N2CC[C@@H]3CNC[C@@H]32)c(F)cn2c(=O)c(C(=O)O)cc(C3CC3)c12 | 0.1 (≈ 0.269 µM)

Molecular target: T1, DNA gyrase (Escherichia coli)
Experiment: In vitro antibacterial activity against gram-positive organism Enterococcus faecium ATCC 8043
Assay type: functional
Conditions: not given

SMILES | MIC [µg/mL]
Cc1c(N2CC[C@@H]3CNC[C@@H]32)c(F)cn2c(=O)c(C(=O)O)cc(C3CC3)c12 | 0.1 (≈ 0.269 µM)

Tested on: Streptococcus pneumoniae
Experiment: In vivo efficacy against Strep. administration
Assay type: functional
Conditions: Streptococcus pneumoniae; read-out: ED50

SMILES | ED50 [mg/kg]
Cc1c(N2CC[C@@H]3CNC[C@@H]32)c(F)cn2c(=O)c(C(=O)O)cc(C3CC3)c12 | 9.5

Molecular target: T1, DNA gyrase (Escherichia coli)
Experiment: not given
Conditions: Escherichia coli K-12

SMILES | CC50 [µg/mL]
Cc1c(N2CC[C@@H]3CNC[C@@H]32)c(F)cn2c(=O)c(C(=O)O)cc(C3CC3)c12 | 0.4 (≈ 1.08 µM)

Tested on: not listed separately
Experiment: in vivo
Conditions: rat, plasma, po, 5 mg/kg

SMILES | half-life [min]
Cc1c(N2CC[C@@H]3CNC[C@@H]32)c(F)cn2c(=O)c(C(=O)O)cc(C3CC3)c12 | 342

Tested on: not listed separately
Experiment: in vivo
Conditions: rat, po, 5 mg/kg
Description: Oral bioavailability in rat (dose 5 mg/kg)

SMILES | bioavailability [%]
Cc1c(N2CC[C@@H]3CNC[C@@H]32)c(F)cn2c(=O)c(C(=O)O)cc(C3CC3)c12 | 41

Tested on: not listed separately
Experiment: physchem
Conditions: phosphate buffer, pH 7.4
Description: Aqueous solubility in pH 7.4 phosphate buffer (0.05 M) at 37 degree C

SMILES | solubility [µg/mL]
Cc1c(N2CC[C@@H]3CNC[C@@H]32)c(F)cn2c(=O)c(C(=O)O)cc(C3CC3)c12 | 1940 (≈ 5220 µM)

Tested on: Pseudomonas aeruginosa
Experiment: In vivo efficacy against Pseudomonas aeruginosa 5007 following p.o. administration.
Conditions: not given

SMILES | ED50 [mg/kg]
Cc1c(N2CC[C@@H]3CNC[C@@H]32)c(F)cn2c(=O)c(C(=O)O)cc(C3CC3)c12 | 42.8
